Source: the supplement of paper PMC10307832

These cell lines were tested with O=C(NC1CCNCC1)c1n[nH]cc1NC(=O)c1c(Cl)cccc1Cl [AT-7519] + Cc1nc(NC(=O)N2CCC[C@H]2C(N)=O)sc1-c1ccnc(C(C)(C)C(F)(F)F)c1 [Alpelisib] (partner 2 µM) (assay: relative viability (nuclei count vs DMSO), 5 days (fraction); higher = more cells survive). Details: first compound 0.01 µM.
Method in brief: (§1)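 For relative viability, nuclei counts in treated wells were divided by those in vehicle wells. Lung cancer cell lines had been pin-tool dosed in 1536-well plates the day after seeding and cultured for 5 days, then fixed and stained in one step (final 0.05% Triton X-100, 1% formaldehyde, 1 ug/ml Hoechst) and imaged at 4×. Doses were one drug alone or a fixed anchor-drug dose plus five library-drug doses (not always all listed) in √10 steps, and values are duplicate-plate medians.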

Cell Line	relative viability
RERF-LC-KJ	0.787
ABC-1	0.962
NCI-H358	0.948
NCI-H650	1.09
PC-3 [JPC-3]	1.02

Same assay, conditions: first compound 0.03162 µM

Cell Line	relative viability
RERF-LC-KJ	0.718
ABC-1	1.01
NCI-H358	0.712
NCI-H650	1
PC-3 [JPC-3]	1.03

Same assay, conditions: first compound 0.3162 µM

Cell Line	relative viability
RERF-LC-KJ	0.768
ABC-1	0.724
NCI-H358	0.431
NCI-H650	1.09
PC-3 [JPC-3]	1.04

Same assay, conditions: first compound 1 µM

Cell Line	relative viability
RERF-LC-KJ	0.537
ABC-1	0.416
NCI-H358	0.179
NCI-H650	1.08
PC-3 [JPC-3]	1.03

Each cell line was assayed with C1=CC2=C(C=C(C(=C2N=C1)O)N=NC3=CC4=C(C=C3)C=C(C=C4)S(=O)(=O)O)S(=O)(=O)O + COc1cc2c(Oc3ccc(NC(=O)C4(C(=O)Nc5ccc(F)cc5)CC4)cc3F)ccnc2cc1OCCCN1CCOCC1 [Foretinib] (partner 0.25 µM) in the same assay as above. Details: first compound 0.08 µM.
Method in brief: as §1

Cell Line	relative viability
RERF-LC-KJ	1.02
ABC-1	1.19
NCI-H358	0.778
NCI-H650	1.13
PC-3 [JPC-3]	1.1

Same assay, conditions: first compound 0.253 µM

Cell Line	relative viability
RERF-LC-KJ	0.835
ABC-1	1.02
NCI-H358	0.61
NCI-H650	1.07
PC-3 [JPC-3]	1.03

Same assay, conditions: first compound 0.8 µM

Cell Line	relative viability
RERF-LC-KJ	0.837
ABC-1	0.915
NCI-H358	0.635
NCI-H650	1.01
PC-3 [JPC-3]	1.08

Same assay, conditions: first compound 2.53 µM

Cell Line	relative viability
RERF-LC-KJ	0.999
ABC-1	1.27
NCI-H358	0.651
NCI-H650	1.02
PC-3 [JPC-3]	0.99

Same assay, conditions: first compound 8 µM

Cell Line	relative viability
RERF-LC-KJ	0.844
ABC-1	0.374
NCI-H358	0.884
NCI-H650	1.06
PC-3 [JPC-3]	0.951

Each cell line was assayed with C1=CC2=C(C=C(C(=C2N=C1)O)N=NC3=CC4=C(C=C3)C=C(C=C4)S(=O)(=O)O)S(=O)(=O)O + Cc1cc(Nc2cc(N3CCN(C)CC3)nc(Sc3ccc(NC(=O)C4CC4)cc3)n2)n[nH]1 [Tozasertib] (partner 0.1 µM) in the same assay as above. Details: first compound 0.08 µM.
Method in brief: as §1

Cell Line	relative viability
RERF-LC-KJ	0.506
ABC-1	0.155
NCI-H358	0.126
NCI-H650	0.703
PC-3 [JPC-3]	0.963

Same assay, conditions: first compound 0.253 µM

Cell Line	relative viability
RERF-LC-KJ	0.601
ABC-1	0.199
NCI-H358	0.0956
NCI-H650	0.671
PC-3 [JPC-3]	0.848

Same assay, conditions: first compound 0.8 µM

Cell Line	relative viability
RERF-LC-KJ	0.512
ABC-1	0.176
NCI-H358	0.0998
NCI-H650	0.749
PC-3 [JPC-3]	0.846

Same assay, conditions: first compound 2.53 µM

Cell Line	relative viability
RERF-LC-KJ	0.519
ABC-1	0.167
NCI-H358	0.103
NCI-H650	0.737
PC-3 [JPC-3]	0.856

Same assay, conditions: first compound 8 µM

Cell Line	relative viability
RERF-LC-KJ	0.509
ABC-1	0.132
NCI-H358	0.102
NCI-H650	0.79
PC-3 [JPC-3]	0.864

Each cell line was assayed with C1=CC2=C(C=C(C(=C2N=C1)O)N=NC3=CC4=C(C=C3)C=C(C=C4)S(=O)(=O)O)S(=O)(=O)O + NC(=O)Nc1cc(-c2cccc(F)c2)sc1C(=O)N[C@H]1CCCNC1 [AZD7762] (partner 0.2 µM) in the same assay as above. Details: first compound 0.08 µM.
Method in brief: as §1

Cell Line	relative viability
RERF-LC-KJ	0.945
ABC-1	0.741
NCI-H358	0.375
NCI-H650	0.872
PC-3 [JPC-3]	0.899

Same assay, conditions: first compound 0.253 µM

Cell Line	relative viability
RERF-LC-KJ	0.949
NCI-H358	0.667
NCI-H650	0.996
PC-3 [JPC-3]	0.808

Same assay, conditions: first compound 0.8 µM

Cell Line	relative viability
RERF-LC-KJ	0.924
ABC-1	0.831
NCI-H358	0.426
NCI-H650	0.967
PC-3 [JPC-3]	0.817

Same assay, conditions: first compound 2.53 µM

Cell Line	relative viability
RERF-LC-KJ	1.03
ABC-1	0.691
NCI-H358	0.544
NCI-H650	0.922
PC-3 [JPC-3]	0.778

Same assay, conditions: first compound 8 µM

Cell Line	relative viability
RERF-LC-KJ	0.552
ABC-1	0.667
NCI-H358	0.518
NCI-H650	0.998
PC-3 [JPC-3]	0.71
